What was measured:
[1] = system: dimethylbenz(a)anthracene(DMBA)/UV-B induced tumors; details: mice; cited from earlier work
[2] = system: H-ras-induced cell transformation; details: mammalian cells producing phytoene; cited from earlier work
[3] = system: UV-B induced tumors; details: mice treated with phytoene; cited from earlier work
[4] = system: MCF-7 mammary cancer cell; experiment: MCF-7 mammary cancer cell proliferation ([3H]thymidine incorporation), stimulated by 3% serum; type: cell-based
Method: (§1) FIG. 1. […] MCF-7 mammary cancer cell were preincubated for 24 hours in 0.5% serum and then growth ([^3H]thymidine incorporation) was stimulated by 3% serum. Stimulated cells were treated for 3 days with the indicated concentrations of the astaxanthin alone or in combination with 0.3 μM lycopene (FIG. 1A). The high concentrations of lycopene and astaxanthin (FIG. 1B) are indicated. Data presented are the mean±SE of 2-3 independent experiments performed in quadruplicates.
as §1, with “FIG. 4.” for “FIG. 1.”, “the phytoene and phytofluene (phytoene) mixture” for “the astaxanthin”, “(FIG. 4A).” for “(FIG. 1A).”, “and phytoene plus phytofluene” for “and astaxanthin”, “(FIG. 4B)” for “(FIG. 1B)”
FIG. 5. […] MCF-7 mammary cancer cell were preincubated for 24 hours in 0.5% serum and then growth ([^3H]thymidine incorporation) was stimulated by 3% serum. Stimulated cells were treated for 3 days with the indicated concentrations Of the beta-carotene alone or in combination with 0.3 μM lycopene (FIG. 5A). The high concentrations of lycopene and beta-carotene (FIG. 5B) are indicated. Data presented are the mean±SE of 2-3 independent experiments performed in quadruplicates.

[5] = up to levels of 4 μM; cited from earlier work
[6] = system: LNCaP prostate cancer cell; experiment: DHT induced LNCaP prostate cancer cell proliferation ([3H]thymidine incorporation); type: cell-based; details: 3 days
Method: FIG. 2. […] LNCaP prostate cancer cell were preincubated for 24 hours in 1.5% serum and then growth ([^3]thymidine incorporation) was stimulated by addition of […] (DHT). Stimulated cells were treated for 3 days with the indicated concentrations of the phytoene and phytofluene (phytoene) mixture alone or in combination with 0.3 μM Lycopene (plus lycopene) (FIG. 2A). The high concentrations of lycopene and phytoene plus phytofluene (FIG. 2B) are indicated. Data presented are the mean±SE of 2-3 independent experiments performed in quadruplicates.
FIG. 3. […] LNCaP prostate cancer cell were preincubated for 24 hours in 1.5% serum and then growth ([^3]thynidine incorporation) was stimulated by addition of 10^−9 M dihydrotestosterone DHT). Stimulated cells were treated for 3 days with the indicated concentrations of the beta-carotene alone or in combination with 0.3 μM lycopene (FIG. 3A). The high concentrations of lycopene and beta-carotene (FIG. 3B) are indicated. Data presented are the mean±SE of 2-3 independent experiments performed in quadruplicates.

[7] = subjects receiving high supplementation of lycopene; cited from earlier work

Compound | treating DMBA/UV-B induced tumors [1] | resistance to H-ras-induced cell transformation [2] | UV-B induced tumors developed versus control mice [3] | effect of lycopene on the inhibitory effects of astaxanthin on mammary cancer cell proliferation ([4]; MCF-7, 0.3 μM lycopene combined with astaxanthin, 3 days, FIG. 1) | effect of lycopene on the inhibitory effects of beta-carotene on mammary cancer cell proliferation ([4]; MCF-7, 0.3 μM lycopene combined with beta-carotene, 3 days, FIG. 5) | effect of lycopene on the inhibitory effects of phytoene and phytofluene on mammary cancer cell proliferation ([4]; MCF-7, 0.3 μM lycopene combined with phytoene and phytofluene mixture, 3 days, FIG. 4) | decrease in proliferation ([4]; breast cancer cells, lycopene alone at low concentration (0.3 μM)) | concentration of lycopene alone giving the same dramatic inhibition of cancer cells as the combination ([4]; lycopene alone) | in-vitro activity with increasing concentration [5] | effect of lycopene on the inhibitory effects of beta-carotene on DHT induced prostate cancer cell proliferation ([6]; 0.3 μM lycopene combined with beta-carotene, FIG. 3) | effect of lycopene on the inhibitory effects of phytoene and phytofluene on DHT induced prostate cancer cell proliferation ([6]; 0.3 μM lycopene combined with phytoene and phytofluene mixture, FIG. 2) | serum concentration plateau [7]
CC(C)=CCC/C(C)=C/CC/C(C)=C/CC/C(C)=C/C=C/C=C(\C)CC/C=C(\C)CC/C=C(\C)CCC=C(C)C [phytoene] | ineffective | displayed resistance | fewer UV-B induced tumors than the control mice |  |  |  |  |  |  |  |  | 
CC(C)=CCC/C(C)=C/C=C/C(C)=C/C=C/C(C)=C/C=C/C=C(C)/C=C/C=C(C)/C=C/C=C(\C)CCC=C(C)C [lycopene] |  |  |  | enhances the inhibitory effects | enhances the inhibitory effects | enhances the inhibitory effects | no decrease in proliferation | 2 to 3 µM | improved activity with the increase of concentration | enhances the inhibitory effects | enhances the inhibitory effects | 1000 to 1200 nM
